The species named for data set [1] is Homo sapiens. The data set is described as follows: Selectivity for integrin alpha2bbeta3 receptor over integrin alphavbeta3 receptor.
Data set [2] addresses Integrin alpha-5/beta-1 (Homo sapiens, UniProt P05556+P08648). The data set can be described thus: Binding affinity to integrin alpha-5-beta-1 receptor by solid phase binding assay. The format is protein-complex assay.
Data set [3] is described as follows: Permeability across human Caco-2 cell monolayer. The format is ADME, cell-based. Background: Passage across Caco-2 layers is used to estimate intestinal permeability.
The target in data set [4] is Integrin alpha-IIb/beta-3 (Homo sapiens, UniProt P05106+P08514). The data set is described as follows: Binding affinity to integrin alpha-2b-beta-3 receptor by solid phase binding assay. The format is protein-complex assay.
Integrin alpha-IIb/beta-3, sequence (P05106 27-788 limits assumed): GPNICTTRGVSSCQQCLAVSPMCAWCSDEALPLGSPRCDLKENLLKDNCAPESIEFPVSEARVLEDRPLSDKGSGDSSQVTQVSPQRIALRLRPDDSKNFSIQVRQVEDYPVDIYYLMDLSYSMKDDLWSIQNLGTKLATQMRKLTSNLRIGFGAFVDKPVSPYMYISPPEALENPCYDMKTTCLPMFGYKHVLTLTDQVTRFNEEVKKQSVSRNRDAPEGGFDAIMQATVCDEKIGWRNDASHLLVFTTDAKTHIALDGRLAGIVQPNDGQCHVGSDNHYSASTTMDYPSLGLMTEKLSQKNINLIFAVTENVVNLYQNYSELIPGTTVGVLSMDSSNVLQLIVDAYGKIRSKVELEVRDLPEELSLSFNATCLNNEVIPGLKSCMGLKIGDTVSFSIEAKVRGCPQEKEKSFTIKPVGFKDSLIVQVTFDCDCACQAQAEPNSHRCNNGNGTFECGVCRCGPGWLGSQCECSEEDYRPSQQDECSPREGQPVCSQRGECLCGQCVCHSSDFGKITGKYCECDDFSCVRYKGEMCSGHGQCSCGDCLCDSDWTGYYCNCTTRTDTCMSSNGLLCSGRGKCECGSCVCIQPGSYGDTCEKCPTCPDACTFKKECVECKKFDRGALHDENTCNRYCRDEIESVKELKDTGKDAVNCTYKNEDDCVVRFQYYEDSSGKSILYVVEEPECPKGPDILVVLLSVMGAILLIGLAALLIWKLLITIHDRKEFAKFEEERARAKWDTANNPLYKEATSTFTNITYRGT
Integrin alpha-IIb/beta-3, sequence (P08514 32-887 limits assumed): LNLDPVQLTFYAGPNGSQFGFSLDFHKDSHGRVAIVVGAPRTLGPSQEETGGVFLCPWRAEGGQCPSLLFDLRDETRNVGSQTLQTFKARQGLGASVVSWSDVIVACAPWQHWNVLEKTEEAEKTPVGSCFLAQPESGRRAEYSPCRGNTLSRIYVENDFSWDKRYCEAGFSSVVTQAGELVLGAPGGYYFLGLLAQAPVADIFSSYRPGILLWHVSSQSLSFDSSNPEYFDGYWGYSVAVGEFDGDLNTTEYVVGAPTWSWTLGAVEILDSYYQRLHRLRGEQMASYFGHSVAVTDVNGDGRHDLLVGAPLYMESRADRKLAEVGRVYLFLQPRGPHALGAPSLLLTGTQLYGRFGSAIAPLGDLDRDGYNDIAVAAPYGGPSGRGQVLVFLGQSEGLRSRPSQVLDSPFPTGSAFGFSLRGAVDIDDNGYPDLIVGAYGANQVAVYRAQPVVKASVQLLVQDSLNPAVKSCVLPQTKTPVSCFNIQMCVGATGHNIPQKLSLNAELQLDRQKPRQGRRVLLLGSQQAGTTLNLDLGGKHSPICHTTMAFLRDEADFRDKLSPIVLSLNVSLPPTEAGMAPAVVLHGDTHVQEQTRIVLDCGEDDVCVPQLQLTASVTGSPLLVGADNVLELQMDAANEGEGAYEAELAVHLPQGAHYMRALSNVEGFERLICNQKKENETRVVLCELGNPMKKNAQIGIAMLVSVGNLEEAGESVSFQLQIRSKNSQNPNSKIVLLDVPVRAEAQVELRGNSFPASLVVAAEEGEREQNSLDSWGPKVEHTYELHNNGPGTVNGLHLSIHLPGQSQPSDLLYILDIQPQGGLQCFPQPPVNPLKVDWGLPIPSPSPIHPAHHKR
Integrin alpha-IIb/beta-3, sequence (P08514 891-1039 limits assumed): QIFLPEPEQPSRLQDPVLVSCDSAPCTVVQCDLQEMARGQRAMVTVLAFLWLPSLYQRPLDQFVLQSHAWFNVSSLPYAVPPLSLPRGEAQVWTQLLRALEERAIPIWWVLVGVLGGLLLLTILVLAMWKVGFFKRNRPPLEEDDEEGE
Data set [5] addresses Integrin alpha-V/beta-3 (Homo sapiens, UniProt P05106+P06756). The data set can be described thus: Binding affinity to integrin alpha-v-beta-3 receptor by solid phase binding assay. Type of data set: protein-complex assay.

pIC50: −log10 of the molar value. Square brackets hold non-standard residues; d marks the D form. Peptide text beside a SMILES is read from it.

Integrin alpha-V/beta-3, sequence (P05106 27-788 limits assumed): as the sequence (P05106 27-788 limits assumed) above
Integrin alpha-V/beta-3, sequence (P06756 31-889 limits assumed): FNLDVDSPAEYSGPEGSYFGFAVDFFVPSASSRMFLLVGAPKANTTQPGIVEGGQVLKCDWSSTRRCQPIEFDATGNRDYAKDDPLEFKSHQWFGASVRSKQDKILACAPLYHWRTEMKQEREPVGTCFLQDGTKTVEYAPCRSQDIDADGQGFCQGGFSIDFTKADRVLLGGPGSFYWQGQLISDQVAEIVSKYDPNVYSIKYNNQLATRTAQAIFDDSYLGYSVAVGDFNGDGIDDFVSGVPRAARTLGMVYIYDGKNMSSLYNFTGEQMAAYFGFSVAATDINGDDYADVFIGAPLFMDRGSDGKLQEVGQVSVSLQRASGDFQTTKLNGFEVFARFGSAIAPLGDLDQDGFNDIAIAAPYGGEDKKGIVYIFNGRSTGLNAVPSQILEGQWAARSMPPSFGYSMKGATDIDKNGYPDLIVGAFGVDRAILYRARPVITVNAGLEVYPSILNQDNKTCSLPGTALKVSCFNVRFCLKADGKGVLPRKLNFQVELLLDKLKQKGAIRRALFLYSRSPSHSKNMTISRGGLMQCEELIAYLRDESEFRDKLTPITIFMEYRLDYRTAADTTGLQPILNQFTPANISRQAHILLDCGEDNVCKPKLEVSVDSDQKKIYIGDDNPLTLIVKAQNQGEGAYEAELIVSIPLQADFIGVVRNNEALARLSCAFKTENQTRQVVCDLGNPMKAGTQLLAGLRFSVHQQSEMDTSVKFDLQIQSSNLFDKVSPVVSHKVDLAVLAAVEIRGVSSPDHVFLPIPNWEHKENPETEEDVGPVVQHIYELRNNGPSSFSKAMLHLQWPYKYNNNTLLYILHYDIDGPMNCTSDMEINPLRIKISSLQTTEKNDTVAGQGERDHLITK
Integrin alpha-V/beta-3, sequence (P06756 891-1048 limits assumed): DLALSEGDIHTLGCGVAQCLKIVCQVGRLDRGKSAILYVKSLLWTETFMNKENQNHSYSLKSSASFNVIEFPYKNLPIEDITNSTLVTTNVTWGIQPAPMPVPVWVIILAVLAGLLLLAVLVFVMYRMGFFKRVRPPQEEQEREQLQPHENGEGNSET
Integrin alpha-5/beta-1, sequence (P05556 21-798 limits assumed): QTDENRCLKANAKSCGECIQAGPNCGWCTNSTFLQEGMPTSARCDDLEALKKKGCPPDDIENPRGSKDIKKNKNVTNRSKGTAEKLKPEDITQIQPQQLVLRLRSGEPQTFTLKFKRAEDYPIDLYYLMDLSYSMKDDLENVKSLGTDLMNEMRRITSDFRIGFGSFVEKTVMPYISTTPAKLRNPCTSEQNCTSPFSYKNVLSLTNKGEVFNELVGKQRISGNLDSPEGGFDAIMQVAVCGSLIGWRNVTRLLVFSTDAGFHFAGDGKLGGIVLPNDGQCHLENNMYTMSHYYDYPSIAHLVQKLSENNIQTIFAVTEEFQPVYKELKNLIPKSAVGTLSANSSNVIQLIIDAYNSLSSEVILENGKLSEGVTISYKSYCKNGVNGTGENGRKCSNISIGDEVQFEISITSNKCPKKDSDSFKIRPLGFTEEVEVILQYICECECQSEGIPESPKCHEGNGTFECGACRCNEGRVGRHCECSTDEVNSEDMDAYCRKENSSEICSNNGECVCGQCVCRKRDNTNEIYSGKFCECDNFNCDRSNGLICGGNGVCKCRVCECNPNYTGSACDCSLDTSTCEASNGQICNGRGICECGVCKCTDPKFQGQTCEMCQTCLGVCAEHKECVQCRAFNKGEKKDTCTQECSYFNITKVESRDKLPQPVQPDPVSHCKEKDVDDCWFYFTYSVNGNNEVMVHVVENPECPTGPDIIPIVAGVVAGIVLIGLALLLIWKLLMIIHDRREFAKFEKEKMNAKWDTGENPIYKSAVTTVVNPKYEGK
Integrin alpha-5/beta-1, sequence (P08648 42-894 limits assumed): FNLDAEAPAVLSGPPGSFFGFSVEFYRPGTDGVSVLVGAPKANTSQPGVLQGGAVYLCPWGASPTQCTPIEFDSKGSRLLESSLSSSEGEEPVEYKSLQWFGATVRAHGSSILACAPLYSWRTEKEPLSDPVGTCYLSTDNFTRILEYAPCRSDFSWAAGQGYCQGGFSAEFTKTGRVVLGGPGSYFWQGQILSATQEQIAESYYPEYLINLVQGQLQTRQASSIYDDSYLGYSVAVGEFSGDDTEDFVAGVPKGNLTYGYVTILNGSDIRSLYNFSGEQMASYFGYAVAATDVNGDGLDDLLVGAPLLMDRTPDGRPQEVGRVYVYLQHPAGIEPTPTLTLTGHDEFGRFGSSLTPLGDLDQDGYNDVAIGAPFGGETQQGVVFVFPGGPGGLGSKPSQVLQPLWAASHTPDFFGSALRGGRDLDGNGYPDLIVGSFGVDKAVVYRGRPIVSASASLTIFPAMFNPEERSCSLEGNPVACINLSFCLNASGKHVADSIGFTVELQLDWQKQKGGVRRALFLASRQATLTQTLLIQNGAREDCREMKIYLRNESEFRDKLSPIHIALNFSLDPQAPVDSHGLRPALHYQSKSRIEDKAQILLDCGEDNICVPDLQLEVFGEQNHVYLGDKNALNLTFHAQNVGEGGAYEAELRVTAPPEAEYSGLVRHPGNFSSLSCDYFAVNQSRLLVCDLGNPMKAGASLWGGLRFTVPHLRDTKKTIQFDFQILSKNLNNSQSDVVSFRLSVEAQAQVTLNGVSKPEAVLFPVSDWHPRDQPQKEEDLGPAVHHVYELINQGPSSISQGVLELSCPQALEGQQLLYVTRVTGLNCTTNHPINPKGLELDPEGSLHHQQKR
Integrin alpha-5/beta-1, sequence (P08648 895-1049 limits assumed): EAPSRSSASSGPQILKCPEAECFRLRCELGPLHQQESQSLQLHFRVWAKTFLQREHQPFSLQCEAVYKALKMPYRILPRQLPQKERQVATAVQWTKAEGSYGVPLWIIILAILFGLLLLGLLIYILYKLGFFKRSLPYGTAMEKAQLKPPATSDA

Consider `CC(C)C[C@H]1C(=O)NCC(=O)N(C)[C@@H](CCCNC(=N)N)C(=O)NCC(=O)N[C@@H](CC(=O)O)C(=O)N(C)[C@H](Cc2ccccc2)C(=O)N1C`, for which the Ratio IC50 in data set [1] stood at 406.

In the case of `CC(C)C[C@H]1C(=O)NCC(=O)N[C@@H](CCCN=C(N)N)C(=O)NCC(=O)N[C@@H](CC(=O)O)C(=O)N(C)[C@H](Cc2ccccc2)C(=O)N1C`, the pIC50 (commonly −log10 of the IC50, conventionally taken in molar units) was under 4.70 in data set [2], 6.21 in data set [4] and 5.92 in data set [5]. For the same compound, the Papp (as a rule, a coefficient for how fast a substance crosses the barrier) in data set [3] was 0.03 ×10⁻⁶ cm/s.

Regarding `CC(C)C[C@H]1C(=O)NCC(=O)N(C)[C@@H](CCCNC(=N)N)C(=O)NCC(=O)N[C@@H](CC(=O)O)C(=O)N[C@H](Cc2ccccc2)C(=O)N1C`, the pIC50 is 4.70 in data set [2], 7.82 in data set [4] and 5.89 in data set [5]. For the same compound, the Ratio IC50 in data set [1] worked out at 86. For the same compound, in data set [3], the Papp turned out to be 0.03 ×10⁻⁶ cm/s.

On to `CC(C)C[C@H]1C(=O)NCC(=O)N[C@@H](CCCN=C(N)N)C(=O)NCC(=O)N[C@@H](CC(=O)O)C(=O)N[C@H](Cc2ccccc2)C(=O)N1C`, for which the figures for the negative logarithm of the IC50 (pIC50) in data set [2], in data set [4] and in data set [5] were 5.41, 6.25 and 6.99, respectively. The Papp in data set [3] worked out at 0.03 ×10⁻⁶ cm/s.

Take `CC(C)C[C@H]1C(=O)NCC(=O)N[C@@H](CCCNC(=N)N)C(=O)NCC(=O)N[C@@H](CC(=O)O)C(=O)N[C@H](Cc2ccccc2)C(=O)N1C`: the Ratio IC50 in data set [1] is 0.2.

Consider `CC(C)C[C@@H]1NC(=O)[C@@H](Cc2ccccc2)N(C)C(=O)[C@H](CC(=O)O)NC(=O)CNC(=O)[C@H](CCCN=C(N)N)NC(=O)CNC1=O`, for which the negative-log IC50 (pIC50) in data set [2] is 5.37; in data set [4] it was 5.70; in data set [5], 6.31. Further, the Papp in data set [3] is 0.03 ×10⁻⁶ cm/s.

Turning to `CC(C)C[C@H]1C(=O)NCC(=O)N[C@@H](CCCNC(=N)N)C(=O)NCC(=O)N[C@@H](CC(=O)O)C(=O)N(C)[C@H](Cc2ccccc2)C(=O)N1C`, the Ratio IC50 in data set [1] amounted to 2.

In the case of `OC[C@@H](O)[C@@H](O)[C@H](O)[C@H](O)CO` [MANNITOL], the Papp in data set [3] is 0.9 ×10⁻⁶ cm/s.

In the case of `CC(C)C[C@@H]1NC(=O)[C@@H](Cc2ccccc2)NC(=O)[C@H](CC(=O)O)NC(=O)CNC(=O)[C@H](CCCNC(=N)N)N(C)C(=O)CNC1=O`, the Ratio IC50 in data set [1] worked out at 64.

Regarding `CC(C)C[C@@H]1NC(=O)[C@@H](Cc2ccccc2)N(C)C(=O)[C@H](CC(=O)O)NC(=O)CNC(=O)[C@H](CCCNC(=N)N)NC(=O)CNC1=O`, the Ratio IC50 in data set [1] was 0.2.

As for `CC(C)C[C@H]1C(=O)NCC(=O)N(C)[C@@H](CCCN=C(N)N)C(=O)NCC(=O)N[C@@H](CC(=O)O)C(=O)N(C)[C@H](Cc2ccccc2)C(=O)N1C`, the pIC50 is under 4.70 in data set [2], 7.52 in data set [4] and 4.91 in data set [5]. Also, the apparent permeability coefficient (Papp) in data set [3] came to 0.03 ×10⁻⁶ cm/s.

With `CC(C)C[C@@H]1NC(=O)[C@@H](Cc2ccccc2)N(C)C(=O)[C@H](CC(=O)O)NC(=O)CNC(=O)[C@H](CCCNC(=N)N)N(C)C(=O)CNC1=O`, the pIC50 in data set [2] is under 4.70; in data set [4], 6.78; in data set [5] it was 5.56. The Ratio IC50 in data set [1] was 16. In data set [3], this compound gave a Papp of 0.03 ×10⁻⁶ cm/s.

With `CC(C)C[C@@H]1NC(=O)[C@@H](Cc2ccccc2)NC(=O)[C@H](CC(=O)O)NC(=O)CNC(=O)[C@H](CCCNC(=N)N)NC(=O)CNC1=O` (cyclo(GRGD[dF]L)), the negative-log IC50 (pIC50) in data set [2] is 6.13; in data set [4] it was 6.71; in data set [5], 7.00. Further, the Ratio IC50 in data set [1] amounted to 0.5. Besides, in data set [3], the Papp came to 0.03 ×10⁻⁶ cm/s.

Consider `CC(C)C[C@@H]1NC(=O)[C@@H](Cc2ccccc2)NC(=O)[C@H](CC(=O)O)NC(=O)CNC(=O)[C@H](CCCN=C(N)N)N(C)C(=O)CNC1=O`, for which the pIC50 in data set [2] is 5.92; in data set [4], 7.92; in data set [5], 6.11. The compound further yielded a Papp in data set [3] of 0.03 ×10⁻⁶ cm/s.

(Values after ChEMBL document CHEMBL1138295, “Multiple N-methylation by a designed approach enhances receptor selectivity” (J Med Chem, 2007).)
